Reference: PMC11768549, “Optimization of Toxicity, Biodegradability, and Skin Irritation in Formulations Containing Mixtures of Anionic and Nonionic Surfactants Combined with Silica Nanoparticles” (Toxics, 2025)

Columns and labels:
Lepidium sativum = assay: Germination test on Lepidium sativum seeds (ISO 18763:2016), root and stem elongation; format: in vivo; settings: 72 h, 25 °C, dark, mixtures 1:1; for EC50, L. sativum (Root): 50% root growth inhibition; for EC50, L. sativum (Stem): 50% stem growth inhibition
Protocol: The germination test on L. sativum (cress) seeds is a static test of acute toxicity. This test allows for evaluating the phytotoxic effects produced in the seed germination process and the development of seedlings during the first days of growth (72 h). The garden cress test with L. sativum was carried out according to ISO-18763:2016 [28]. The inhibition in the elongation of the root and stem was determined.
Briefly, 25 L. sativum seeds were placed in a well-distributed manner in Petri dishes (100 mm Ø) containing filter paper saturated with 5 mL of the test solution. Distilled water was used as a control, and zinc (II) was used as a toxic reference compound. Each Petri dish was covered and sealed to prevent moisture loss. For 72 h, at 25 °C, and in the absence of light, the different samples were incubated in triplicate. Once the incubation was completed, the length of the root and stem of each germinated seed was measured with the help of graph paper. The inhibition of the root and stem growth by the test solutions was assessed in comparison with the control.
(§1) The toxicity of individual anionic and nonionic surfactants on V. fischeri and L. sativum was evaluated, and their EC50 results are presented in Table 2. For V. fischeri, toxicity values are expressed as EC50 values, determined using a logarithmic plot of sample concentration versus the percentage reduction in light intensity after a 30-min exposure period. This indicates the concentration at which there is a 50% reduction in bioluminescence. Similarly, for L. sativum, toxicity values are also expressed as EC50 values, which represent the concentration at which 50% growth inhibition is observed. This was measured by assessing the root and stem elongation after a 72-hour exposure period. The specific growth parameters, such as root length reduction, were used to determine the EC50 values.
(§2) The model of toxic units (MTU) was applied to quantify the interactions between toxicants in binary surfactant mixtures: FAE-R12–14E11 with EC-R12–14E3, FAE-R12–14E11 with EC-R12–14E10, and FAE-R12–14E11 with EC-R8E5. This approach helps predict whether the principles of concentration or response addition apply. The toxic unit for each component in the mixture (TUi) was calculated as the ratio between the concentration of the toxicant in the mixture [i] and its half-maximal effective concentration (EC50i) (Equation (7)). The total toxic unit of the mixture (TUmix) is the sum of the TUi values of the individual components […].(7) TUi=i/EC50i (8) TUmix=TUA+TUB=A/EC50A+B/EC50B
(§3) If the toxicants act independently (response addition), the predicted toxic unit (TUr) is calculated using Equations (9) and (10). If TUr ≈ TUmix, response addition can be expected.(9) If TUA>TUB TUr=1+TUB/TUA (10) If TUA<TUB TUr=1+TUA/TUB

Vibrio fischeri = assay: Luminescence inhibition assay in Vibrio fischeri (ISO 11348-2:2007, LumiStox 300); format: cell-based; settings: 50% bioluminescence inhibition after 30 min exposure, pH 7.0, 2% NaCl; mixtures 1:1
Protocol: The toxicity measurement is based on the luminous intensity of marine bacteria of the strain V. fischeri NRRLB11177 after exposure to a toxic substance. Measurements were taken using the LumiStox 300 system, which includes a bioluminescence measuring instrument and an incubation unit, in accordance with the ISO 11348-2:2007 guideline. The luminescent bacteria, which were dehydrated and frozen at −18 °C, were reactivated with a suspension provided by Dr. Lange. The assay conditions were maintained at a pH of 7.0 with a NaCl concentration of 2%. Triplicate measurements were taken at incubation times of 30 min. The toxicity values were determined as EC50, representing the surfactant concentrations that inhibit 50% of the bioluminescence after 30 min of exposure. If necessary, the sample was filtered prior to the assay.
as §1, §2, §3

[1] = set-up: method as in doi:10.1016/j.molliq.2023.122021; settings: cited from earlier work; for CMC (±SD): critical micelle concentration; for HLB: hydrophilic–lipophilic balance
[2] = Static biodegradation test (OECD 301E), DOC removal; settings: initial 25 mg·L^−1; for B (surfactant biodegradability): percentage biodegraded after 50 h of assay; for t1/2 (half-life of biodegradation): time for 50% decrease of substrate, graphical
Protocol: The static biodegradation tests were conducted according to the OECD 301E guidelines, which focus on the removal of organic compounds measured as dissolved organic carbon (DOC). Solutions of the surfactant and surfactant–co-surfactant mixtures, serving as the sole carbon source for microorganisms, were tested in a mineral medium inoculated and incubated under aerobic conditions in the dark for 28 days. The initial concentration of the test substance for surfactant and surfactant–co-surfactant mixtures was set at 25 mg·L^−1.
The surfactant solution, for which biodegradability was to be determined, was inoculated with 0.5 mL of water from the secondary treatment stage of a sewage treatment plant (STP) operating with activated sludge (plus code: 597G+W2, Granada, Spain). The biodegradation process was monitored by measuring the residual surfactant concentration over time through DOC determinations in samples, filtered through a 0.45 µm Millipore membrane, using the total organic carbon (TOC) analyser Shimadzu VCSH/CSH (Shimadzu Co., Kyoto, Japan). Reference assays were performed with an easily biodegradable surfactant (linear alkylbenzene sulfonate) to determine the activity of the microbial population present in the test medium. […] All samples were tested in duplicate. The experimental setup included two flasks for the blank, two for the reference surfactant, two for the abiotic assay, and two for each of the surfactant concentrations tested.
The biodegradation of surfactants and their binary mixtures was assessed under aerobic conditions following the OECD 301E guidelines for ready biodegradability. The process was tracked by measuring the dissolved organic carbon (DOC) in the samples over time. […] Abiotic control tests, using HgCl2 to inhibit biological activity, confirmed that surfactant concentrations remained at nearly 100% throughout the degradation period. […] Figure 1 illustrates the progression of ultimate biodegradation of the surfactants and binary mixtures over the testing period. The assays were initiated with surfactant concentrations of 25 mg·L^−1.
To compare and quantify the biodegradation test, two key parameters of the biodegradation profiles were defined and analysed: (a) Half-life (t1/2) is the time required for the substrate concentration to decrease by 50% from the start of the biodegradation process. This value is determined using graphical methods based on the biodegradation curve. (b) Surfactant biodegradability (B) is defined as the percentage of surfactant that is biodegraded after 50 h of assay. Half-time and surfactant biodegradability results are shown in Table 5, together with mineralization values obtained using Equation (11).(11) Mineralization (%)=DOCi− [DOC]f/ [DOC]i·100 where
• DOCi is the dissolved organic carbon at the beginning of the test; • DOCf is the dissolved organic carbon at the end of the test.

zein = assay: Irritation potential using the modified zein method (zein number); set-up: species or system corn; settings: room temperature; for ZN 0.5%: each component 0.5% wt.; for ZN 1%: each component 1% wt.
Protocol: The irritant potential of surfactants, their mixtures, and the addition of silica nanoparticles was assessed using a modified zein method. This method is used to assess the potential irritation of chemicals or cosmetics on the skin. It is based on the interaction of a substance with proteins, particularly with the protein zein, which is a protein derived from corn. The modified zein method is recognized as an in vitro alternative to predict dermal irritation without the need to perform tests on animals. This method involves three stages to determine the amount of protein (zein) solubilized in a surfactant-containing solution: (1) zein denaturation, (2) oxidation and mineralization of organic matter, and (3) nitrate content measurement. All experiments were conducted at room temperature and performed in triplicate. For these tests, the final concentration of each component, whether pure or in a mixture, was set at 0.5% and 1% wt. These concentrations reflect typical dosages found in cosmetic, detergent, and personal hygiene products that come into direct contact with the skin. The zein number (ZN), expressed as mg of nitrogen (N) released per 100 g of surfactant solution, was calculated using the following formula: ZN = c/10(2) where c is the nitrogen concentration measured spectrophotometrically in ppm (mg·1000 mL^−1). Given that the density of the testing solution is 1 g·mL^−1, c is ultimately expressed as mg·1000 g^−1. Two control cases were used for validation: a negative control with deionized water and a positive control with 1% wt. sodium lauryl sulphate (SLS), a well-known surfactant with high irritant potential. The zein number (ZN) (Section 2.3) provides an indication of surfactant-induced potential skin irritation. According to the scale established by, surfactants can be classified as non-irritant, moderately irritant, irritant, or strongly irritant. The final concentration of each component, whether individual or in a mixture, was set at 0.5% and 1% wt.

Row | Substance | EC50, L. sativum (Root) (Lepidium sativum) [µg/mL] | EC50, L. sativum (Stem) (Lepidium sativum) [µg/mL] | EC50, V. fischeri (Vibrio fischeri) [µg/mL] | CMC (±SD) [1] | HLB [1] | B (surfactant biodegradability) [2] [%] | t1/2 (half-life of biodegradation) [2] [h] | ZN 0.5% (zein) | ZN 1% (zein)
1 | Laureth-11 Carboxylic Acid [EC-R12–14E10] | 32.02 ± 8.90 | 60.11 ± 6.52 | 14.18 ± 4.32 | 70.8 ± 7.2 [17] mg·L^−1 | 9.5 [17] | 10.30 | 130.50 | – | –
2 | Laureth-11/Myreth-11 [FAE-R12–14E11] | 338.17 ± 13.21 | 97.15 ± 7.14 | 13.26 ± 3.26 | 18.5 ± 2.3 [17] mg·L^−1 | 14.3 [17] | 2.40 | 185.80 | – | –
3 | Laureth-4 Carboxylic Acid [EC-R12–14E3] | 35.40 ± 4.80 | 93.25 ± 8.90 | 3.58 ± 1.28 | 33.7 ± 3.1 [17] mg·L^−1 | 5.5 [17] | 1.25 | 330.90 | 152.92 ± 7.25 mg of nitrogen (N) released per 100 g of surfactant solution | 183.5 ± 5.60 mg of nitrogen (N) released per 100 g of surfactant solution
4 | Capryleth-6 Carboxylic Acid [EC-R8E5] | 53.61 ± 7.20 | 64.77 ± 6.50 | 32.76 ± 3.60 | 97.9 ± 6.5 [17] mg·L^−1 | 11–14 [17] | 9.40 | 118.20 | 49.15 ± 3.60 mg of nitrogen (N) released per 100 g of surfactant solution | 157.9 ± 7.40 mg of nitrogen (N) released per 100 g of surfactant solution
